These results are taken from patent US20210369739A1, “COMBINATION THERAPY OF ACYLTHIOUREA COMPOUND AND ABIRATERONE” (TAIHO PHARMACEUTICAL CO., LTD., priority 2018, published 2021).

Data set [1] concerns bone metastasis of castration-resistant prostate cancer. As to the kind of experiment: Combinational administration test: bone scintigraphy, Bone Scan Index (BSI). The note with it: with 1000 mg abiraterone acetate once a day. The format is in vivo, human. The method, then:
(§1) A methanesulfonate salt of compound I and abiraterone acetate were administered to patients of castration-resistant prostate cancer with bone metastasis as subjects, and the efficacy and side effects were evaluated. A schedule of administering the methanesulfonate salt of compound I in any of three doses in terms of the free form (200, 300, or 400 mg/body/day) to patients who were receiving secondary endocrine therapy before docetaxel treatment as subjects once a day for 5 days and taking a drug holiday of the compound I only for 2 days was repeated. During this period, 1000 mg of abiraterone acetate was administered to every dosage groups every day once a day, and six subjects were examined in each dosage group. […] In the side effects that determine this discontinuation of enrollment and evaluation, etc., abnormal clinical examination values, such as an increase in alanine aminotransferase (ALT), an increase in aspartate aminotransferase (AST), and an increase in blood creatine kinase (CK), are not included. […] Accordingly, since the number of cases for evaluation of each dosage group is small, i.e., 6 cases, from the viewpoint of the efficacy, side effects, and administration continuity, 6 cases at 300 mg/body/day were additionally evaluated.
Regarding the efficacy, bone scintigraphy to be used for detecting bone metastasis was implemented, and evaluation was performed based on Bone Scan Index (BSI) using analytical data by BONE NAVI and criteria of Response Evaluation Criteria in Solid Tumors (RECIST) guideline Version 1.1 or Prostate Cancer Clinical Trials Working Group 3 (PCWG3). […] The ANN value indicates the degree of confidence of metastasis on a scale from 0 to 1, and an ANN value exceeding 0.5 is assessed to have a risk of bone metastasis. In addition, in FIG. 1, the best value among BSI measured during the period of administration of the compound I is shown as Best response based on the bone metastasis on the day of starting the administration in each dosage group.

Data set [2] is described as follows: Combinational administration test: seriousness of side effects (CTCAE Ver. 4.03). Format: in vivo, human. The note with it: every dosage group; in combination with abiraterone acetate. The procedure: as §1, with “additionally evaluated. […]” for “additionally evaluated.”

In the case of `CNC(=O)c1cc2c(Oc3ccc(NC(=S)NC(=O)Cc4ccccc4)cc3F)ccnc2cc1OC` [compound I, 4-(2-fluoro-4-(3-(2-phenylacetyl)thioureido)phenoxy)-7-methoxy-N-methylquinoline-6-carboxamide], the “suppression of bone metastasis observed (BSI)” value in data set [1] (200 mg/body/day as free form, once a day for 5 days then 2-day holiday, CRPC patients with bone metastasis) was “two of six”; in data set [1] (400 mg/body/day as free form, bone metastasis not measurable in one of six cases), “five of the remaining five”. In data set [1] (300 mg/body/day, among the 10 cases with suppression), the “BSI value became 0” value is on record as “three”. Besides, the side effects entry in data set [2] is “acceptable”.
